In patent publication US12534469B2 (CHILDREN'S HOSPITAL MEDICAL CENTER, priority 2020, dated 2026) one finds IC50 data, which are given here for twelve compounds.

The structures appear in SMILES notation. A value given as a limit tells only on which side of the number the result lay.

This experiment deals with T1, FLT3 (Homo sapiens, UniProt P36888).
T1 construct: using full-length kinases in the presence of cellular concentrations of ATP in live, uncompromised cells; assay by Reaction Biology; host or cells: HEK-293 (ATCC), transient transfection
T1 sequence (P36888 27-993): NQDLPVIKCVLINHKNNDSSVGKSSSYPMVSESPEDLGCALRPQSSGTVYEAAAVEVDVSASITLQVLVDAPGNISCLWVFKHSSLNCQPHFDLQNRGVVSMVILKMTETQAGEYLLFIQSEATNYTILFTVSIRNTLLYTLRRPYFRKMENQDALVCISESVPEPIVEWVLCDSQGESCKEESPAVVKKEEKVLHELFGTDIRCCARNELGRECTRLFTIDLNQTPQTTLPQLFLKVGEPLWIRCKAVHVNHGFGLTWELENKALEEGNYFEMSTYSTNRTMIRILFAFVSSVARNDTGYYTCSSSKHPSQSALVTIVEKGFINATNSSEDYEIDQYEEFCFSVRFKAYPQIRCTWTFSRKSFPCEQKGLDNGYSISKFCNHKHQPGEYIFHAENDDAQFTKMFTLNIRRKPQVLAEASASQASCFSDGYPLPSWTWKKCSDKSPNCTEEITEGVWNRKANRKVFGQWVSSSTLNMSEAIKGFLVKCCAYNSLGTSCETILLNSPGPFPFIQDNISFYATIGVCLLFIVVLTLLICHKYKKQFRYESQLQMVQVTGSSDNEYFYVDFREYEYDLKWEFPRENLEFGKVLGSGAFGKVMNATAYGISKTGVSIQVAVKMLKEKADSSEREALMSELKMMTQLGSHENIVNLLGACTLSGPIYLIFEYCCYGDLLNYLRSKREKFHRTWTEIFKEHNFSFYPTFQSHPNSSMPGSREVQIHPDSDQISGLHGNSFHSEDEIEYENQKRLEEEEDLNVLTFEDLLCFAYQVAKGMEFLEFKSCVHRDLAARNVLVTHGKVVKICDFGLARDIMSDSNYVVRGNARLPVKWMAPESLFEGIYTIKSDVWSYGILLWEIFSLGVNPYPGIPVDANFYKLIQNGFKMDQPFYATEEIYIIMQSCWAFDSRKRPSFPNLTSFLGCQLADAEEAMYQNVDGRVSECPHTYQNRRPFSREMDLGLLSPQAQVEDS
In words: Reaction Biology NanoBRET target engagement assay, FLT3. It is filed as cell-based. The following applies: transfected HEK-293 cells. An excerpt:
The NanoBRET assay measures kinase engagement in real time in the context of the intact cell. Unlike the previously described biochemical kinase assay methodologies in Examples 26-27, the NanoBRET assay measures the binding and activity characteristics under equilibrium conditions using full-length kinases in the presence of cellular concentrations of ATP in live, uncompromised cells. As such, the assay provides a more relevant assessment of kinase potency and selectivity that would be expected to be observed in the native cellular environment, where potency is often considerably lower than that observed in the isolated biochemical assays (Vasta, J. D. et al., (2018) Cell Chem. Biol. 25, 206-214). The assay uses a Kinase-NanoLuc® fusion vector expressing a kinase protein to which a luciferase tag has been added, a cell-permeant fluorescent NanoBRET™ tracer, a NanoLuc® substrate, and an extracellular NanoLuc® inhibitor. Upon expression of the luciferase-tagged kinase, cells will produce a strong BRET signal only in the presence of the NanoBRET™ tracer. The extracellular NanoLuc® inhibitor ensures that the BRET signal observed emanates only from live cells. Because the BRET signal has tight distance constraints, addition of the test compound will decrease the BRET signal if the compound competes with the NanoBRET™ tracer for binding to the kinase domain. Under the appropriate tracer conditions established by the manufacturer, quantitative intracellular affinity and relative potency can then be determined using Mass Action model equations.
HEK-293 cells were purchased from ATCC. FuGENEHD Transfection Reagent, Kinase-NanoLucfusion plasmids, Transfection Carrier DNA, NanoBRETTracers and dilution buffer, NanoBRETNano-Glo Substrate, Extracellular NanoLucInhibitor were obtained from Promega.
Assays were conducted following Promega assay protocol with some modifications. HEK-293 Cells were transiently transfected with Kinase-NanoLucFusion Vector DNA by FuGENEHD Transfection Reagent. Testing compounds were delivered into 384 well assay plate by Echo 550 (LabcyteInc, Sunnyvale, CA). Transfected cells were harvested and mixed with NanoBRETTracer Reagent and dispensed into 384 well plates and incubated at 37° C. in 5% CO2 cell culture incubator for 1 hour. The NanoBRETNano-Glo Substrate plus Extracellular NanoLucInhibitor Solution were added into the wells of the assay plate and incubated for 2-3 minutes at room temperature. The donor emission wavelength (460 nm) and acceptor emission wavelength (600 nm) were measured in the EnVisionplate reader. The BRET Ratios were calculated. BRET Ratio=[(Acceptor sample÷Donor sample)−(Acceptor no-tracer control÷Donor no-tracer control)]. The IC50 values of compounds were calculated with Prism GraphPad program.
• 1). Cultivate HEK-293 cells (70-80% confluence) appropriately prior to assay. Trypsinize and collect HEK-293 cells. • 2). Prepare lipid: DNA complexes as follows: • a. Prepare a 10 μg/ml solution of DNA in Opti-MEM without serum that consists of the following ratios of carrier DNA and DNA encoding NanoLuc® fusion. 9.0 μg/mL of Transfection Carrier DNA, 1.0 μg/mL of NanoLuc fusion vector DNA and 1 mL of Opti-MEM without phenol red. Mix thoroughly. • b. Add 30 μl of FuGENE HD Transfection Reagent into each milliliter of DNA mixture to form lipid:DNA complex. • c. Mix by inversion 10 times. • d. Incubate at ambient temperature for 20 minutes to allow complexes to form. • 3). In a sterile, conical tube, mix 1 part of lipid:DNA complex with 20 parts of HEK-293 cells in suspension. Mix gently by inversion 5 times. • 4). Dispense cells+lipid:DNA complex into a sterile tissue culture dish and incubate for 22-24 hours. 2. Addition of Test Compounds (Dry Plate Shooting)
Each test compound is delivered from the compound source plate to the wells of 384-well white NBS plate by Echo 550.
• 1). […]
On the technique in general: BRET reads energy transfer from a luciferase to a nearby fluorophore.
Broadly, the IC50 is the point on the concentration scale where inhibition reaches its midpoint. High values mean a need for much substance, low ones inhibition by little substance. As to `COc1cc2ncc(-c3cccc(N[C@H]4CNC[C@@H]4C(F)(F)F)n3)n2nc1C1CC1` [Compound 99, 6-(6-cyclopropyl-7-methoxyimidazo[1,2-b]pyridazin-3-yl)-N-((3R,4S)-4-(trifluoromethyl)pyrrolidin-3-yl)pyridin-2-amine], 3 nM corresponded to half-maximal inhibition (IC50).
With `COc1cc2ncc(-c3nc(N[C@@H]4CCCNC4)c(F)cc3F)n2nc1C1CC1` [Compound 106, (R)-6-(6-cyclopropyl-7-methoxyimidazo[1,2-b]pyridazin-3-yl)-3,5-difluoro-N-(piperidin-3-yl)pyridin-2-amine] the figure was < 0.5 nM; with `COc1cc2ncc(-c3nc(N[C@H]4CNC[C@@H]4F)c(F)cc3F)n2nc1C1CC1` [Compound 107, 6-(6-cyclopropyl-7-methoxyimidazo[1,2-b]pyridazin-3-yl)-3,5-difluoro-N-((3S,4S)-4-fluoropyrrolidin-3-yl)pyridin-2-amine], 4890 nM.
As to `F[C@H]1CNC[C@@H]1Nc1cccc(-c2cnc3ccc(-c4cnn5ccccc45)nn23)n1` [Compound 9, N-((3S,4S)-4-fluoropyrrolidin-3-yl)-6-(6-(pyrazolo[1,5-a]pyridin-3-yl)imidazo[1,2-b]pyridazin-3-yl)pyridin-2-amine], the 50% inhibitory concentration (IC50) stood at 367 nM.
With `c1cc(N[C@@H]2CCCNC2)nc(-c2cnc3ccc(-c4cnn5ccccc45)nn23)c1` [Compound 19, (R)-N-(piperidin-3-yl)-6-(6-(pyrazolo[1,5-a]pyridin-3-yl)imidazo[1,2-b]pyridazin-3-yl)pyridin-2-amine] the figure was 142 nM; with `COc1cc2ncc(-c3cccc(N[C@H]4CNC[C@@H]4F)n3)n2nc1C(C)(O)C(F)(F)F` (single isomer, unassigned; fast-eluting) [Compound 133], 226 nM; with `COc1cc2ncc(-c3nc(N[C@H]4CNCC[C@@H]4F)c(F)cc3F)n2nc1C(C)(C)O` [Compound 128, 2-(3-(3,5-difluoro-6-(((3S,4S)-4-fluoropiperidin-3-yl)amino)pyridin-2-yl)-7-methoxyimidazo[1,2-b]pyridazin-6-yl)propan-2-ol], 102 nM.
Then `COc1cc2ncc(-c3cccc(N[C@H]4CNCC[C@@H]4F)n3)n2nc1C1CC1` [Compound 102, 6-(6-cyclopropyl-7-methoxyimidazo[1,2-b]pyridazin-3-yl)-N-((3S,4S)-4-fluoropiperidin-3-yl)pyridin-2-amine], with 4 nM; and `COc1cc2ncc(-c3nc(N[C@H]4CNC[C@@H]4F)c(F)cc3F)n2nc1C(C)(C)O` [Compound 126, 2-(3-(3,5-difluoro-6-(((3S,4S)-4-fluoropyrrolidin-3-yl)amino)pyridin-2-yl)-7-methoxyimidazo[1,2-b]pyridazin-6-yl)propan-2-ol], with 1160 nM; and `COc1cc2ncc(-c3cccc(N[C@H]4CNC[C@@H]4F)n3)n2nc1C1CC1` [Compound 96, 6-(6-cyclopropyl-7-methoxyimidazo[1,2-b]pyridazin-3-yl)-N-((3S,4S)-4-fluoropyrrolidin-3-yl)pyridin-2-amine], with 18 nM.
Then `COc1cc2ncc(-c3nc(N[C@H]4CNCC[C@@H]4F)c(F)cc3F)n2nc1C1CC1` [Compound 108, 6-(6-cyclopropyl-7-methoxyimidazo[1,2-b]pyridazin-3-yl)-3,5-difluoro-N-((3S,4S)-4-fluoropiperidin-3-yl)pyridin-2-amine], with < 0.5 nM.
`COc1cc2ncc(-c3nc(N[C@@H]4CCCNC4)c(F)cc3F)n2nc1C(C)(C)O` [Compound 127, (R)-2-(3-(3,5-difluoro-6-(piperidin-3-ylamino)pyridin-2-yl)-7-methoxyimidazo[1,2-b]pyridazin-6-yl)propan-2-ol]: half-maximal inhibition (IC50) required 196 nM.
